Experimental data published in patent US4497812A, “2-Amino-5-aminomethyl-2-oxazolines, compositions and use” (Societe Cortial, S.A., priority 1982, dated 1985).
Like-named read-outs stand apart in the source and are kept apart here.

How the values were obtained:
in vivo = conditions: mouse, mice, read-out: Percentage of mortality
Method: The toxicity was determined in mice for various ways of administraion.

[1] = test system: right auricle of a guinea pig beating spontaneously; assay: antihistaminic activity antiH2 in vitro, histamine-induced chronotropic effect; format: cell-based; conditions: for intrinsic chronotropic effect / inhibition at 100 µg/mL: 100 microg/ml
Method: Antihistaminic activity antiH2 was determined in vitro on the right auricle of a guinea pig beating spontaneously.

[2] = test system: right auricle of a guinea pig stimulated electrically; assay: positive inotropic activity in vitro; format: cell-based; conditions: Cavia porcellus; 100 microg/ml; read-out: increase of the auricle contractile force
Method: The positive inotropic activity was determined in vitro on the right auricle of a guinea pig stimulated electrically.

rats [3] = assay: antiallergic activity, cutaneous passive anaphylaxis test; format: in vivo
Method: The antiallergic activity was determined in rats in the cutaneous passive anaphylaxis test. The animals sensitized by an intradermic injection of IgE immediately received, after administration of the product to be tested, an intravenous injection of ovalbumin and Evans blue. The products of Examples 3 and 4 caused, at 10 mg/kg, 53 and 60% respectively inhibition of the Evans blue spot.

rats [4] = assay: diuretic activity, sodium excretion; format: in vivo; conditions: 20 mg/kg per os
Method: The diuretic activity was determined in rats subjected to a hydric regimen and evaluated by the ratio of sodium excreted in the treated animals to the sodium excreted in control animals. The products of Examples 3 and 7 multiplied the sodium excretion by 4.2 and 4.9 respectively at a dose of 20 mg/kg per os.

mice = assay: hypocholesterolemic activity, regimen rich in cholesterol and cholic acid; format: in vivo; conditions: 400 mg/kg per os
Method: The hypocholesterolemic activity was determined in mice subjected to a regimen rich in cholesterol and cholic acid for 7 days. After administration per os of the production of Example 6 in a dose of 400 mg/kg, a 21% reduction of cholesterolemia was noted on the 6th and 7th days. This drop in cholesterolemia was accompanied by a 20% reduction of the […] fraction, the HDL/cholesterol ratio being equal to 1.01.

rats [5] = assay: carrageenan edema test; format: in vivo; conditions: 100 mg/kg per os, after 4 hours
Excerpt: The antiinflammatory activity was brought out in the carrageenan edema test in rats.

ulcerigenic effect = format: in vivo; conditions: 200 mg/kg per os
guinea pig ileum [6] = assay: antihistaminic activity antiH1 in vitro, contractions induced by histamine; format: cell-based; conditions: Cavia porcellus
Method: The antihistaminic activity antiH1 was determined in vitro on guinea pig ileum.

guinea pig ileum [7] = assay: contractions induced by serotinin in vitro; format: cell-based; conditions: Cavia porcellus; 25 microg/ml
rats [8] = assay: stress ulcer test; format: in vivo; conditions: 25 mg/kg per os
Excerpt: The antiulcerigenic activity was shown in the stress ulcer test.

[9] = test system: spontaneously hypertensive rat; assay: spontaneously hypertensive rat, systolic pressure; format: in vivo; conditions: orally 100 mg/kg
Method: In the model of the spontaneously hypertensive rat, the product of Example 13, administered orally in a dose of 100 mg/kg, caused a drop in systolic pressure of 14 and 15% respectively after two and four hours. The product of Example 14, administered in a dose of 100 mg/kg under the same conditions, caused a reduction of 21% of the systolic pressure after six hours.

[10] = ip, intraperitoneally 200 mg/kg
[11] = Cavia porcellus, 5 microg/ml of histamine
[12] = ip, intraperitoneally 100 mg/kg

With `CCN(CC)CC1CN=C(N)O1` (stereo not shown) [Example 1, 2-amino-N,N-5-diethylaminomethyl-2-oxazoline] the mortality (in vivo; [10]) was 0%, the mortality (in vivo; po, orally 300 mg/kg) was 0% and the intrinsic chronotropic effect [1] was “without exhibiting intrinsic chronotropic effect”. The inhibition at 100 µg/mL [1, 11] was > 50%, the activation at 100 µg/mL [2] was 100% and the “inhibition of the Evans blue spot” value (rats [3]; 100 mg/kg per os) was 60%.

In the case of `CCCCN(C)CC1CN=C(N)O1` (stereo not shown) [Example 2, 2-amino-5-(N-butyl-N-methylaminomethyl)-2-oxazoline], the mortality (in vivo; [12]) is reported as 0%, the mortality (in vivo; [10]) is reported as 100% and the mortality (in vivo; po, orally 300 mg/kg) is reported as 0%. The intrinsic chronotropic effect [1] was “without exhibiting intrinsic chronotropic effect” and the inhibition at 100 µg/mL [1, 11] was > 50%.

`NC1=NCC(CN2CCCC2)O1` (stereo not shown) [Example 3, 2-amino-5-pyrrolidinomethyl-2-oxazoline] showed a mortality (in vivo; [12]) of 0%, a mortality (in vivo; [10]) of 100% and a mortality (in vivo; po, orally 300 mg/kg) of 0%. For the same molecule, the “inhibition of the Evans blue spot” value (rats [3]; 10 mg/kg) was 53% and the “sodium excretion multiplied by (ratio treated to control animals)” value (rats [4]) was 4.2.

Molecule `NC1=NCC(CN2CCCCC2)O1` (stereo not shown) [Example 4, 2-amino-5-piperidinomethyl-2-oxazoline] has a mortality (in vivo; [12]) of 0%, a mortality (in vivo; [10]) of 100% and a mortality (in vivo; po, orally 200 mg/kg) of 0%. The mortality (in vivo; po, orally 300 mg/kg) was 33% and the “inhibition of the Evans blue spot” value (rats [3]; 10 mg/kg) was 60%.

In the case of `CC1CCN(CC2CN=C(N)O2)CC1` (stereo not shown) [Example 5, 2-amino-5-(4-methylpiperidinomethyl)-2-oxazoline], the mortality (in vivo; [12]) is reported as 0%, the mortality (in vivo; [10]) is reported as 100% and the mortality (in vivo; po, orally 300 mg/kg) is reported as 0%.

With `CCC1CCCCN1CC1CN=C(N)O1` (stereo not shown) [Example 6, 2-amino-5-(2-ethylpiperidinomethyl)-2-oxazoline] the mortality (in vivo; [10]) was 0%, the mortality (in vivo; po, orally 300 mg/kg) was 0% and the intrinsic chronotropic effect [1] was “without exhibiting intrinsic chronotropic effect”. For the same molecule, the inhibition at 100 µg/mL [1, 11] was > 50%, the HDL/cholesterol ratio (mice) was 1.01 and the “reduction of the HDL-VLDL fraction” value (mice) was 20%. For the same molecule, the reduction of cholesterolemia (mice; 6th and 7th days) was 21%.

With `NC1=NCC(CN2CCOCC2)O1` (stereo not shown) [Example 7, 2-amino-5-morpholinomethyl-2-oxazoline] the mortality (in vivo; po, orally 300 mg/kg) was 100% and the “sodium excretion multiplied by (ratio treated to control animals)” value (rats [4]) was 4.9.

For `CN1CCN(CC2CN=C(N)O2)CC1` (stereo not shown) [Example 10, 2-amino-(4-methylpiperazinyl)-5-methyl-2-oxazoline], the mortality (in vivo; [10]) was 0% and the mortality (in vivo; po, orally 300 mg/kg) was 0%.

In the case of `NC1=NCC(CN2CCN(c3ccccc3)CC2)O1` (stereo not shown) [Example 11], the “inhibition of carrageenan edema” value (rats [5]) is reported as 35%, the ulcerigenic effect (ulcerigenic effect) is reported as “very slightly ulcerigenic” and the inhibition at 25 µg/mL (guinea pig ileum [6]; 25 microg/ml) is reported as > 80%. The inhibition at 25 µg/mL (guinea pig ileum [7]) was 80% and the “inhibition of the stress ulcer” value (rats [8]) was 88%.

With `NC1=NCC(CN2CCC(Cc3ccccc3)CC2)O1` (stereo not shown) [Example 12] the mortality (in vivo; [12]) was 0%, the mortality (in vivo; [10]) was 100% and the mortality (in vivo; po, orally 100 mg/kg (footnote 1)) was 0%. For the same molecule, the mortality (in vivo; po, orally 300 mg/kg) was 100%.

In the case of `NC1=NCC(CN2CCN(Cc3ccccc3)CC2)O1` (stereo not shown) [Example 13], the mortality (in vivo; [12]) is reported as 0%, the mortality (in vivo; [10]) is reported as 100% and the mortality (in vivo; po, orally 300 mg/kg) is reported as 0%. The inhibition at 100 µg/mL [1, 11] was > 50%, the inhibition at 100 µg/mL (guinea pig ileum [6]; 100 microg/ml) was > 80% and the “drop in systolic pressure” value ([9]; after four hours) was 15%. For the same molecule, the “drop in systolic pressure” value ([9]; after two hours) was 14%.

With `C=CCN1CCN(CC2CN=C(N)O2)CC1` (stereo not shown) [Example 14] the mortality (in vivo; [10]) was 0%, the mortality (in vivo; po, orally 300 mg/kg) was 0% and the inhibition at 50 µg/mL ([1]; Cavia porcellus, 50 microg/ml, 5 microg/ml of histamine) was > 50%. The “reduction of the systolic pressure” value ([9]; after six hours) was 21%.
